Data taken from patent US20060276446A1, “Tricyclic 6-alkylidene-penems as class-D beta-lactamases inhibitors” (priority 2005, published 2006).

System: class-D producing organism E. coli GC 2883 (OXA-10 + PSE-2)
Assay: Antimicrobial susceptibility testing, microbroth dilution (NCCLS): piperacillin combined with β-lactamase inhibitor
Type: cell-based
Conditions: MIC of piperacillin combined with constant 4 μg/mL of the β-lactamase inhibitor (example compound), 35° C. for 18 hours
Experimental: Antimicrobial susceptibility testing. The in vitro activities of the antibiotic, piperacillin in this case, against resistant pathogens expressing class-D enzymes were determined by the microbroth dilution method as recommended by the National Committee for Clinical Laboratory Standards (NCCLS). (NCCLS. 2000. Methods for Dilution Antimicrobial Susceptibility Tests for Bacteria That Grow Aerobically; Approved Standards: M7-A5, vol. 19. National Committe for Clinical Laboratory Standards, Villanova, Pa.). Mueller-Hinton II broth (MHBII)(BBL Cockeysville, Md.), was used for the testing procedure. Microtiter plates containing 50 μl per well of two-fold serial dilutions of piperacillin combined with a constant amount (4 μg/mL) of β-lactamase inhibitor (final concentration) were inoculated with 50 μl of inoculum to yield the appropriate density (10^5 CFU/mL) in 100 μL. The plates were incubated for 18-22 hours at 35° C. in ambient air. […] Both OXA-10 and PSE-2 are class D β-lactamases. (Bush, K., Jacoby, G. A., Medeiros, A. A. Antimicrob. Agents Chemother., 1995, 39, 1211).

Compound | Minimal Inhibitory Concentration (MIC50) [µg/mL]
COc1ccc2c(c1)sc1nc(/C=C3/C(=O)N4C(C(=O)O)=CS[C@H]34)cn12 [Example 2] | 4
O=C(O)C1=CS[C@@H]2/C(=C\c3cn4c(n3)sc3cc(Cl)ccc34)C(=O)N12 [Example 3] | 2
O=C(O)C1=CS[C@@H]2/C(=C\c3cn4c(ccc5ccccc54)n3)C(=O)N12 [Example 4, (5R),(6Z)-6-Imidazo[1,2-a]quinolin-2-ylmethylene-7-oxo-4-thia-1-azabicyclo[3.2.0]hept-2-ene-2-carboxylic acid] | 4
O=C(O)C1=CS[C@@H]2/C(=C\c3cn4c5c(sc4n3)CCC5)C(=O)N12 [Example 5, (5R),(6Z)-6-(6,7-dihydro-5H-cyclopenta[d]imidazo[2,1-b][1,3]thiazol-2-ylmethylene)-7-oxo-4-thia-1-azabicyclo[3.2.0]hept-2-ene-2-carboxylic acid] | 2
O=C([O-])C1=CS[C@@H]2/C(=C\c3cn4c(cnc5ccccc54)n3)C(=O)N12.[Na+] [Example 6, (5R),(6Z)-6-(Imidazo[1,2-a]quinoxaline-2-ylmethylene)-7-oxo-4-thia-1-azabicyclo[3.2.0]hepto-2-ene-2-carboxylic acid, sodium salt] | 0.06
Cc1ccc2c(c1)sc1nc(/C=C3/C(=O)N4C(C(=O)O)=CS[C@H]34)cn12 [Example 7] | 2
O=C([O-])C1=CS[C@@H]2/C(=C\c3cn4c(n3)nc3n4CCCC3)C(=O)N12.[Na+] [Example 8, (5R),(6Z)-6-(4,5,6,7-tetrahydro-1,3a,3b,8-tetraaza-cyclopenta[a]indene-2-ylmethylene)-7-oxo-4-thia-1-aza-bicyclo[3.2.0]hept-2-ene-2-carboxylic acid sodium salt] | 2
O=C([O-])C1=CS[C@@H]2C(=Cc3cc4n(n3)Cc3ccccc3OC4)C(=O)N12.[Na+] [Example 11, (5R,6E&Z)-7-oxo-6-(4H,10H-pyrazolo[5,1-c][1,4]benzoxazepin-2-ylmethylene)-4-thia-1-azabicyclo[3.2.0]hept-2-ene-2-carboxylic acid, sodium salt] | 4
O=C([O-])C1=CS[C@@H]2/C(=C\c3cn4c(n3)-c3ccccc3C4)C(=O)N12.[Na+] [Example 12, (5R),(6Z)-6-(5H-Imidazo[2,1-a]isoindol-2-ylmethylene)-7-oxo-4-thia-1-aza-bicyclo[3.2.0]hept-2-ene-2-carboxylic acid sodium salt] | 16
Cc1cccc2sc3nc(/C=C4/C(=O)N5C(C(=O)O)=CS[C@H]45)cn3c12 [Example 13] | 4
O=C(O)C1=CS[C@@H]2/C(=C\c3cn4c(n3)sc3cc(F)ccc34)C(=O)N12 [Example 14] | 4
O=C(O)C1=CS[C@@H]2/C(=C\c3cn4c5c(sc4n3)COCC5)C(=O)N12 [Example 15, (5R),(6Z)-6-(5,8-dihydro-6H-imidazo[2,1-b]pyrano[4,3-d][1,3]thiazol-2-ylmethylene)-7-oxo-4-thia-1-azabicyclo[3.2.0]hept-2-ene-2-carboxylic acid] | 4
O=C(O)C1=CS[C@@H]2/C(=C\c3ccc4c(c3)sc3nccn34)C(=O)N12 [Example 16, (5R),(6Z)-6-(imidazo[2,1-b]bebzothiazol-7-ylmethylene)-7-oxo-4-thia-1-azabicyclo[3.2.0]hept-2-ene-2-carboxylic acid] | 32
O=C(O)C1=CS[C@@H]2/C(=C\c3cn4c(nc5ccccc54)s3)C(=O)N12 [Example 17, (5R),(6Z)-7-oxo-6-([1,3]thiazolo[3,2-a]benzimidazol-2-ylmethylene)-4-thia-1-azabicyclo[3.2.0]hept-2-ene-2-carboxylic acid] | 32
O=C(O)C1=CS[C@@H]2/C(=C\c3cn4nc5c(c4s3)CCC5)C(=O)N12 [Example 18, (5R),(6Z)-6-(7,8-dihydro-6H-cyclopenta[3.4]pyrazolo[5,1-b][1,3]thiazol-2-ylmethylene)-7-oxo-6-4-thia-1-azabicyclo[3.2.0]hept-2-ene-2-carboxylic acid] | 16
O=C(O)C1=CS[C@@H]2/C(=C\c3cn4c5c(sc4n3)CCCC5)C(=O)N12 [Example 19, (5R),(6Z)-7-oxo-6-(5,6,7,8-tetrahydroimidazo[2,1-b][1,3]benzothiazol-2-ylmethylene)-4-thia-1-azabicyclo[3.2.0]hept-2-ene-2-carboxylic acid] | 2
Cn1c2ccccc2n2cc(/C=C3/C(=O)N4C(C(=O)O)=CS[C@H]34)nc12 [Example 20, (5R),(6Z)-8-[(9-methyl-9H-imidazo[1,2-a]benzimidazol-2-yl)methylene]-7-oxo-4-thia-1-azabicyclo[3.2.0]hept-2-ene-2-carboxylic acid] | 64
O=C([O-])C1=CS[C@@H]2/C(=C\c3cccc4nc5n(c34)CCS5)C(=O)N12.[Na+] [Example 28, (5R,6Z)-6-(2,3-dihydro[1,3]thiazolo[3,2-a]benzimidazol-4-ylmethylene)-7-oxo-4-thia-1-azabicyclo[3.2.0]hept-2-ene-2-carboxylic acid, sodium salt] | 16
CCOC(=O)N1CCc2c(oc3cc(/C=C4/C(=O)N5C(C(=O)[O-])=CS[C@H]45)nn23)C1.[Na+] [Example 33] | 8
(5R,6Z)-7-oxo-6-(4H-thieno[2′,3′:4,5]thiopyrano[2,3-b]pyridin-2-ylmethylene)-4-thia-1-azabicyclo[3.2.0]hept-2-ene-2-carboxylic acid (Sodium salt) [Example 21] | 64

System: not given
Assay: not given
Conditions: not given

Compound | melting point
O=C([O-])C1=CS[C@@H]2/C(=C\c3nc4ncc5c(n4n3)CCC3(C5)OCCO3)C(=O)N12.[Na+] [Example 24, (5R,6Z)-6-(8′,9′-dihydro-6′H-spiro[1,3-dioxolane-2,7′-[1,2,4]triazolo[1,5-a]quinazolin]-2′-ylmethylene)-7-oxo-4-thia-1-azabicyclo[3.2.0]hept-2-ene-2-carboxylic acid, sodium salt] | > 250 °C (dec.)
Cc1nc2nc(/C=C3/C(=O)N4C(C(=O)[O-])=CS[C@H]34)nn2c2c1CCCC2.[Na+] [Example 25, (5R,6Z)-6-[(5-methyl-6,7,8,9-tetrahydro[1,2,4]triazolo[1,5-a]quinazolin-2-yl)methylene]-7-oxo-4-thia-1-azabicyclo[3.2.0]hept-2-ene-2-carboxylic acid, sodium salt] | 250 °C (dec.)
O=C([O-])C1=CS[C@@H]2/C(=C\c3cn4c5c(c(OCCOCc6ccccc6)nc4n3)CCC5)C(=O)N12.[Na+] [Example 27, (5R,6Z)-6-({5-[2-(benzyloxy)ethoxy]-7,8-dihydro-6H-cyclopenta[e]imidazo[1,2-a]pyrimidin-2-yl}methylene)-7-oxo-4-thia-1-azabicyclo[3.2.0]hept-2-ene-2-carboxylic acid, sodium salt] | > 250 °C
O=C([O-])C1=CS[C@@H]2/C(=C\c3ccc4nc5n(c4c3)CCCS5)C(=O)N12.[Na+] [Example 29, (5R,6Z)-6-(3,4-dihydro-2H-[1,3]thiazino[3,2-a]benzimidazol-7-ylmethylene)-7-oxo-4-thia-1-azabicyclo[3.2.0]hept-2-ene-2-carboxylic acid, sodium salt] | > 250 °C
O=C([O-])C1=CS[C@@H]2/C(=C\c3ccc4nc5sccn5c4c3)C(=O)N12.[Na+] [Example 30, (5R,6Z)-7-oxo-6-([1,3]thiazolo[3,2-a]benzimidazol-6-ylmethylene)-4-thia-1-azabicyclo[3.2.0]hept-2-ene-2-carboxylic acid, sodium salt] | > 250 °C
